In paper PMC10383271:

Tests used:
[1] = biological target: human serum albumin (HSA) (Homo sapiens, UniProt P02768); test: Binding site study with HSA, replacement of markers DanG and DanF (fluorescence); design: purchased Sigma-Aldrich Chemie GmbH; details: for percentage of the replacement of DanG: drug site 1 marker; for percentage of the replacement of DanF: drug site 2 marker
From the text: HSA, the most important transport protein in our body, has two main binding sites with high affinity to drug binding: drug site 1 in subdomain IIA and drug site 2 in subdomain IIIA [71, 72, 73]. To determine which site the test compounds bind to, the analysis with markers having an affinity for one of the binding sites can be used. Dansylated amino acids turn out to be good for this type of research. In our study, we used dansyl-L-glycine (DanG) and dansyl-L-phenylalanine (DanF) as drug site 1 and drug site 2 markers, respectively. DanG and DanF bound with HSA show the phenomenon of fluorescence at the excitation wave equal to 350 nm. Under these conditions, the fluorescence spectrum is recorded with a band maximum at approximately 510 nm for DanG and 505 nm for DanF, respectively. We conducted a study in which we introduced successive portions of the analyzed compounds to a solution containing equimolar amounts of HSA and each marker. We increased the molar ratio of the reactants from 1:1:0 to 1:1:10. The intensity of fluorescence decreases during the addition of successive portions of the analyzed compounds.
Based on the obtained results, it is possible to calculate the percentage of replacement of DanG or DanF in the complex with albumin by the tested compounds and thus compare the effectiveness of this reaction for all analyzed molecules. (6) percentage of replacement=F0−F/F0·100%
Binding site studies were conducted using fluorescence measurements. Spectra were recorded on Cary Eclipse 500 spectrophotometer (Agilent, Santa Clara, CA, USA) at room temperature with a 10 mm path length. HSA and AAG solutions were prepared in phosphate buffer, giving concentrations equal to 1 × 10^−6 M. The concentrations of dansylated-L-glycine (DanG), dansylated-L-phenylalanine (DanF), and quinaldine red (QR) were 1 × 10^−3 M. The densylated amino acids and QR solutions were prepared in ethanol. For the HSA-dansylated amino acids studies, the excitation wavelength was equal to 350 nm, while for the AAG-QR system, it was 500 nm, respectively. Then, 3 mL of protein was mixed with 3 µL of marker solution, giving a molar ratio of 1 to 1. Next, successive portions of the analyzed compounds were added to the mixtures prepared in this way, obtaining the appropriate protein-to-compound molar ratios, amounting to 1:0, 1:0.5, 1:1, 1:2, 1:3, 1:4, 1:5, and 1:10 for the HSA-densylated amino acids systems, and 1:0, 1:0.5, 1:1, 1:2, 1:3, 1:4, 1:6, 1:8, and 1:10 for the AAG-QR systems.

COX-1 = biological target: T1, COX-1 (Ovis aries, UniProt P05979); test: COX-1 inhibition, Cayman's COX Colorimetric Inhibitor Screening Assay Kit
T1 sequence (P05979 25-600): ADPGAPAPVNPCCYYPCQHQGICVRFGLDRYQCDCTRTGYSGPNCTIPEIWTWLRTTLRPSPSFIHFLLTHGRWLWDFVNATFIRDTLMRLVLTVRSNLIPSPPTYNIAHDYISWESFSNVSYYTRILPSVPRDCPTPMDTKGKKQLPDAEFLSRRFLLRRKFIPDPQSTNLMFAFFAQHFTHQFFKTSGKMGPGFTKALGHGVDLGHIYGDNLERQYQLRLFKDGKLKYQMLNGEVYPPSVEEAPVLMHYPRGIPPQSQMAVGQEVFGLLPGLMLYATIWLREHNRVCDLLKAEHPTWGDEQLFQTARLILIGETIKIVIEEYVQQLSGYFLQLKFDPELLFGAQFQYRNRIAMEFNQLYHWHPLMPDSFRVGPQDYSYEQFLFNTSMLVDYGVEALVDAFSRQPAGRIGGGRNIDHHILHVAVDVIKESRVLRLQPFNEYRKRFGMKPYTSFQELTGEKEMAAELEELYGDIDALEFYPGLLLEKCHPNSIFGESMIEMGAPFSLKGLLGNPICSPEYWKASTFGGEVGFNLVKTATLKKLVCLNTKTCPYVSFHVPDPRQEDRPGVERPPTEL

15-LOX = biological target: T2, 15-LOX (Glycine max, UniProt P08170); test: 15-LOX inhibition, Cayman's Lipoxygenase Inhibitor Screening Assay Kit
T2 sequence (P08170 1-839): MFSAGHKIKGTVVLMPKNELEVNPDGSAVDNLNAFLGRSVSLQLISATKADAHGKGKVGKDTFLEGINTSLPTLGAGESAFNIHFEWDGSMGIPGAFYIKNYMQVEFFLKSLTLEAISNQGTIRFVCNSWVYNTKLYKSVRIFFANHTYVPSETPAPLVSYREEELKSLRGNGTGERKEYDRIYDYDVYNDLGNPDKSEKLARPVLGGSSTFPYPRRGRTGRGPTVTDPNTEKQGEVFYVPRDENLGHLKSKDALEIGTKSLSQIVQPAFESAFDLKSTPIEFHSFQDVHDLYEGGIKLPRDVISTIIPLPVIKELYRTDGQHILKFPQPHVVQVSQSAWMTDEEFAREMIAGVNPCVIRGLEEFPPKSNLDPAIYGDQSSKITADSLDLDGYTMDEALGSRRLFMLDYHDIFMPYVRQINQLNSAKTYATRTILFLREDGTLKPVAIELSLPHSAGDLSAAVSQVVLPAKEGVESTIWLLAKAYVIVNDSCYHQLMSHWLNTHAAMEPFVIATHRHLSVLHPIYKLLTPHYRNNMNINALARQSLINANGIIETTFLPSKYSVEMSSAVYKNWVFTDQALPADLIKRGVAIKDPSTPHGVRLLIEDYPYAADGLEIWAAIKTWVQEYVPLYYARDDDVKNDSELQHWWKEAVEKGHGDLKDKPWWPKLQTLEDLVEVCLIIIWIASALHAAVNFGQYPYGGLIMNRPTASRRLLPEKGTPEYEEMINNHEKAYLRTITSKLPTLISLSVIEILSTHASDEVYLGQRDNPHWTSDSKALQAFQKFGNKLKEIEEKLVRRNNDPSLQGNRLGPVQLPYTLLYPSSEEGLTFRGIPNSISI

[2] = HSA:marker:compound molar ratio 1:1:0.5
[3] = HSA:marker:compound molar ratio 1:1:1
[4] = HSA:marker:compound molar ratio 1:1:2
[5] = HSA:marker:compound molar ratio 1:1:3
[6] = HSA:marker:compound molar ratio 1:1:4
[7] = HSA:marker:compound molar ratio 1:1:5
[8] = HSA:marker:compound molar ratio 1:1:10

Sequence of human serum albumin (HSA) (P02768 25-609): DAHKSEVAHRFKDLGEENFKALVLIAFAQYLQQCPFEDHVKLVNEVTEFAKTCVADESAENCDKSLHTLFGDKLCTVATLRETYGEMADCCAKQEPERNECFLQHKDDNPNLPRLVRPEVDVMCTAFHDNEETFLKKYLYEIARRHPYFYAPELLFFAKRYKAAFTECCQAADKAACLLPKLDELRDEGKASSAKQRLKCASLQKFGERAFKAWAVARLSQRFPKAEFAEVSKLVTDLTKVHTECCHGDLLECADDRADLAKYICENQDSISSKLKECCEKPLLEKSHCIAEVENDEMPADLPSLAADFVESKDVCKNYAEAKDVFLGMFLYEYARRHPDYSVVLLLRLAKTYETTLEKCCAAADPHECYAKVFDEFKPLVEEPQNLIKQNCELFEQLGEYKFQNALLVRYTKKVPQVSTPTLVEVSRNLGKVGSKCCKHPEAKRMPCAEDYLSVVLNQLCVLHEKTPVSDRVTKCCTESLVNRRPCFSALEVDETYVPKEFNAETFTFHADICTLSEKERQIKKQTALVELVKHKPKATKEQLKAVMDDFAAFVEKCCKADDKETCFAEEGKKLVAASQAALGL

SMILES | percentage of the replacement of DanG [1, 2] [%] | percentage of the replacement of DanG [1, 3] [%] | percentage of the replacement of DanG [1, 4] [%] | percentage of the replacement of DanG [1, 5] [%] | percentage of the replacement of DanG [1, 6] [%] | percentage of the replacement of DanG [1, 7] [%] | percentage of the replacement of DanG [1, 8] [%] | percentage of the replacement of DanF [1, 2] [%] | percentage of the replacement of DanF [1, 3] [%] | percentage of the replacement of DanF [1, 4] [%] | percentage of the replacement of DanF [1, 5] [%] | percentage of the replacement of DanF [1, 6] [%] | percentage of the replacement of DanF [1, 7] [%] | percentage of the replacement of DanF [1, 8] [%] | IC50 (COX-1) [µM] | IC50 (15-LOX) [µM]
CCCCn1c(C)c2c(OCC(=O)N/N=C/c3ccccc3)nn(C)c(=O)c2c1C [Compound 5a, N-[(Z/E)-benzylideneamino]-2-(6-butyl-3,5,7-trimethyl-4-oxo-pyrrolo[3,4-d]pyridazin-1-yl)oxy-acetamide] | 0.7 | 0.7 | 3.7 | 5.2 | 6.7 | 8.5 | 15.7 | 2.3 | 2.7 | 5.9 | 9.0 | 11.7 | 14.9 | 28.8 | 81.9 ± 2.1 | 12.9 ± 0.06
Cc1c2c(OCC(=O)N/N=C/c3ccccc3)nn(C)c(=O)c2c(C)n1-c1cccc(Cl)c1 [Compound 5c, N-[(Z/E)-benzylideneamino]-2-[6-(3-chlorophenyl)-3,5,7-trimethyl-4-oxo-pyrrolo[3,4-d]pyridazin-1-yl]oxyacetamide] | 2.9 | 2.9 | 4.3 | 5.0 | 5.7 | 6.4 | 11.4 | 6.2 | 9.5 | 13.8 | 18.1 | 19.0 | 21.0 | 23.3 | 98.9 ± 1.6 | 12.7 ± 0.04
Cc1c2c(OCC(=O)N/N=C/c3ccccc3)nn(C)c(=O)c2c(C)n1-c1ccccc1 [Compound 5b, N-[(Z/E)-benzylideneamino]-2-(3,5,7-trimethyl-4-oxo-6-phenyl-pyrrolo[3,4-d]pyridazin-1-yl)oxy-acetamide] | 0 | 0.7 | 5.6 | 7.7 | 9.8 | 11.2 | 14.0 | 5.2 | 9.1 | 15.7 | 20.4 | 23.5 | 27.4 | 32.2 | 90.1 ± 1.8 | 13.5 ± 0.02
